Measured values published in patent US8455666B1, “Vegetable oil esterified lipoic acid” (The United States of America, as represented by the …, priority 2011, dated 2013).

Legend:
[1] = Lipid peroxidation inhibition capacity assay (AAPH initiator, C11-Bodipy reporter); assay type: biochemical; conditions: for antioxidant capacity compared with Trolox at the same concentration / oxidation protection of DOPC vesicles (C11-Bodipy fluorescence): in words; for oxidation protection of DOPC vesicles (C11-Bodipy fluorescence): AAPH
Experimental: Lipid Oxidation Inhibition. Lipid oxidation inhibition by LDOG was measured by the lipid peroxidation inhibition capacity assay, which employs AAPH as a free-radical initiator and the lipidic reporter molecule C11-Bodipy (Zhang et al., Lipid peroxidation inhibition capacity assay for antioxidants based on liposomal membranes. Mol. Nutr. Food Res. 2006, 50:714-724). C11-Bodipy fluoresces at 595 nm until it is oxidized, at which point its fluorescence shifts to ˜520 nm (Drummen et al., C11-bodipy581/591, an oxidation-sensitive fluorescent lipid peroxidation probe: (micro)spectroscopic characterization and validation of methodology. Free Radical Biol. Med. 2002, 33:473-490). Conditions for the assay using modified glycerides have been detailed previously (Laszlo et al. 2010. ibid). DOPC and C11-Bodipy were combined in a vial, dried to a film, and then rehydrated in 20 mM Tris-HCl, pH 7.4. When included, ALA, DHLA, LDOG-SS-, or LDOG-SH (at 1- or 5-mol % of total lipids) in ethanol were added prior to formation of vesicles. Unilamellar vesicles were prepared from rehydrated lipids as described above. Samples were diluted to a final concentration of 2.5 mM DOPC (2.4 μM C11-Bodipy) and allowed to equilibrate to 37° C. for 15 min prior to the introduction of AAPH. From the time of AAPH addition (40 mM final concentration), fluorescence intensity (excitation at 540 nm, emission at 595 nm) was measured every minute for 180 min. Experiments were conducted in triplicate at least. The relative fluorescence intensity was calculated by dividing the reading at each minute by the initial fluorescence at the beginning of the experiment (Ft/Fo). Background subtraction was accomplished using the appropriate vesicles without C11-Bodipy.
The water-soluble antioxidant Trolox was used for comparison. Trolox was combined with DOPC and C11-Bodipy, dried, and then rehydrated as described above. A final Trolox concentration range of 10 to 125 μM was employed. The peroxyl radical scavenging capacity of the test antioxidant relative to Trolox (i.e., the relative antioxidation activity) was calculated using the following equation
[formula] where AUCSample is the area under the fluorescence curve (AUC) for vesicles containing antioxidant, AUCTrolox is the area under the curve for vesicles containing 50 μM Trolox (thereby arbitrarily assigned a relative antioxidation activity value of 1.0), AUC0 is the area under the curve for vesicles containing only C11-Bodipy, and molSample is the molar concentration of the antioxidant (Naguib, A fluorometric method for measurement of peroxyl radical scavenging activities of lipophilic antioxidants. Anal. Biochem. 1998, 265:290-298). The AUC was calculated from the average of three different methods, those described by Cao and coworkers (Cao et al., Oxygen-radical absorbance capacity assay for antioxidants. Free Radical Biol. Med. 1993, 14:303-311), Naguib (Naguib, Antioxidant activities of astaxanthin and related carotenoids. J. Agric. Food. Chem. 2000, 48:1150-1154), and Zhang and coworkers (Zhang et al. 2006. ibid).

[2] = Vesicle leakage (calcein-cobalt) assay; conditions: 37° C.
Experimental: Lipid Preparation and Formation of Unilamellar Phospholipid Vesicles. Lipid mixtures and vesicles were prepared as described previously (Laszlo et al. 2010. ibid). Lipids were prepared from appropriate amounts of DOPC in chloroform and LDOG-SS- or LDOG-SH (at 1- or 5-mol % of total lipids) in ethanol added to clean amber vials and then gently mixed. Solvents were removed under a stream of argon and then vacuum. The dried lipids were rehydrated in the appropriate buffer and mixed periodically to form multilamellar phospholipid vesicles. The vesicles were subjected to freeze-thaw cycles and then extrusion to form unilamellar vesicles (approx. 125 nm in diameter). Vesicles were covered with argon, protected from light and stored at 4° C. until used. DOPC vesicles incorporating 1- or 5-mol % ALA or DHLA were similarly produced.
Vesicle Leakage (Calcein-Cobalt). Vesicles with and without LDOG were evaluated for membrane integrity using a leakage assay described previously (Evans. Room-temperature ionic liquid cations act as short-chain surfactants and disintegrate a phospholipid bilayer. Colloid. Surface. A 2006, 274:11-17; and Laszlo et al. 2010. ibid). Briefly, the leakage assay was designed such that the low fluorescent signal of the entrapped calcein-cobalt complex increased as vesicles leaked their contents and cobalt was stripped from calcein by external EDTA. Vesicle leakage was monitored with a fluorometer. Samples were continuously stirred in 1-cm path length quartz cuvettes 37° C., with measurements taken for 30 min at 5-s intervals. Experiments were conducted in triplicate. Leakage percentage (L) was determined from the intensity of the fluorescent signal, 100×(Ft−Fo)/(Fmax−Fo), where Ft was the fluorescent signal over time, Fo was the extrapolated initial signal at time zero, and Fmax was the fluorescent signal at the end of the experiment after rupture by addition of Triton X-100 solution. The apparent rate constant k (ms^−1) and maximum extent of vesicle leakage (L∞), prior to vesicle rupture, were obtained by fitting to the equation: Lt=L∞(1−exp(−kt)).

[3] = earlier study (Laszlo et al. 2010); cited from earlier work
[4] = concentration 25 μM, relative to 50 μM Trolox, DOPC vesicles, 37° C.
[5] = concentration 125 μM, relative to 50 μM Trolox, DOPC vesicles, 37° C.
[6] = antioxidant amount 1 mol % in DOPC vesicles
[7] = antioxidant amount 5 mol % in DOPC vesicles

Row | Compound | relative antioxidant capacity [1, 4] | relative antioxidant capacity [1, 5] | leakage rate constant [2, 6] | leakage rate constant [2, 7] | antioxidant capacity compared with Trolox at the same concentration [1] | antioxidant capacity compared with Trolox [3] | oxidation protection of DOPC vesicles (C11-Bodipy fluorescence) ([1]; 37° C.) | relative antioxidant capacity ([1]; concentration 10 μM, relative to 50 μM Trolox, DOPC vesicles, 37° C.) | relative antioxidant capacity ([1]; concentration 50 μM, reference arbitrarily assigned 1.0)
1 | O=C(O)CCCCC1CCSS1 (stereo not drawn) [ALA, α-Lipoic acid] | 0.61 ± 0.26 | 0.29 ± 0.05 | 5.19 ± 1.32 * ms^−1 · 10^3 | 3.98 ± 1.69 ms^−1 · 10^3 | – | – | – | – | –
2 | O=C(O)CCCC[C@@H](S)CCS (racemic) [DHLA, dihydrolipoic acid] | 1.95 ± 0.03 | 1.12 ± 0.02 | 1.43 ± 1.25 ms^−1 · 10^3 | 0.48 ± 0.05 * ms^−1 · 10^3 | double | – | – | – | –
3 | feruloyl dioleoylglycerol | – | – | – | – | – | slightly less | – | – | –
4 | dihydrolipoyl dioleoylglycerol [LDOG—SH] | 2.46 ± 0.10 | 1.21 ± 0.04 | 4.90 ± 0.90 * ms^−1 · 10^3 | 1.88 ± 0.01 ms^−1 · 10^3 | double | – | markedly extended the probe's fluorescent period | – | –
5 | Cc1c(C)c2c(c(C)c1O)CCC(C)(C(=O)O)O2 (stereo not shown) [Trolox] | 0.80 ± 0.09 | 0.80 ± 0.08 | – | – | – | – | – | 0.98 ± 0.28 | 1.00
6 | lipoyl dioleoylglycerol [LDOG—SS—] | 0.09 ± 0.01 | 0.02 ± 0.002 | 0.43 ± 0.12 * ms^−1 · 10^3 | 0.31 ± 0.06 * ms^−1 · 10^3 | – | – | afforded little oxidation protection | – | –
